# Test results reported in PubChem BioAssay AID180 (DTP/NCI, 2004).
# Where “and” joins values, the source holds several entries; their conditions need not be identical. Equal entries are not always repeated.
# System: BDF1 mice, Adenocarcinoma 755 s.c., tumor weight T/C
# Experiment: NCI In Vivo Anticancer Drug Screen. Data for tumor model Adenocarcinoma 755 (subcutaneous) in B6D2F1 (BDF1) mice
# Conditions: endpoint: mean tumor weight, higher = larger tumour
# In short: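 In vivo antitumor screen on a transplantable tumor line. Result equals the measure in compound-treated animals divided by the same measure in vehicle controls.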
smiles,measurement,setting,value
S=c1nc[nH]c2nc[nH]c12,T/C,"dose: 0.01 mg/kg/injection, schedule: Q01DX011 (ip), vehicle: carboxymethylcellulose (CMC)",161 % of control
same,T/C,"dose: 0.4 mg/kg/injection, schedule: Q01DX011 (ip), vehicle: carboxymethylcellulose (CMC)",110 % of control
same,T/C,"dose: 0.5 mg/kg/injection, schedule: Q01DX011 (ip), vehicle: saline",13 % of control
same,T/C,"dose: 0.69 mg/kg/injection, schedule: Q01DX011 (ip), vehicle: carboxymethylcellulose (CMC)",9 % of control
same,T/C,"dose: 0.75 mg/kg/injection, schedule: Q01DX011 (ip), vehicle: carboxymethylcellulose (CMC)",4 % of control
same,T/C,"dose: 0.87 mg/kg/injection, schedule: Q01DX011 (ip), vehicle: saline",21 % of control
same,T/C,"dose: 0.9 mg/kg/injection, schedule: Q01DX011 (ip), vehicle: carboxymethylcellulose (CMC)",31 % of control
same,T/C,"dose: 1.0 mg/kg/injection, schedule: Q01DX007 (ip), vehicle: carboxymethylcellulose (CMC)",23 % of control
same,T/C,"dose: 1.0 mg/kg/injection, schedule: Q01DX011 (ip), vehicle: saline",2 % of control and 16 % of control and 27 % of control
same,T/C,"dose: 1.07 mg/kg/injection, schedule: Q01DX011 (ip), vehicle: carboxymethylcellulose (CMC)",32 % of control
same,T/C,"dose: 1.25 mg/kg/injection, schedule: Q01DX011 (ip), vehicle: carboxymethylcellulose (CMC)",3 % of control and 11 % of control
same,T/C,"dose: 1.38 mg/kg/injection, schedule: Q01DX011 (ip), vehicle: carboxymethylcellulose (CMC)",4 % of control
same,T/C,"dose: 1.5 mg/kg/injection, schedule: Q01DX011 (ip), vehicle: alkali diluted with saline",8 % of control
same,T/C,"dose: 1.5 mg/kg/injection, schedule: Q01DX011 (ip), vehicle: saline",3 % of control and 7 % of control
same,T/C,"dose: 1.75 mg/kg/injection, schedule: Q01DX011 (ip), vehicle: saline",13 % of control
same,T/C,"dose: 1.75 mg/kg/injection, schedule: Q01DX011 (oral), vehicle: saline",22 % of control
same,T/C,"dose: 1.8 mg/kg/injection, schedule: Q01DX011 (ip), vehicle: carboxymethylcellulose (CMC)",4 % of control and 15 % of control
same,T/C,"dose: 2.0 mg/kg/injection, schedule: Q01DX007 (ip), vehicle: carboxymethylcellulose (CMC)",2 % of control and 9 % of control
same,T/C,"dose: 2.0 mg/kg/injection, schedule: Q01DX011 (ip), vehicle: alkali diluted with saline",2 % of control
same,T/C,"dose: 2.14 mg/kg/injection, schedule: Q01DX011 (ip), vehicle: carboxymethylcellulose (CMC)",9 % of control
same,T/C,"dose: 2.5 mg/kg/injection, schedule: Q01DX011 (oral), vehicle: alkali diluted with saline",4 % of control
same,T/C,"dose: 2.67 mg/kg/injection, schedule: Q01DX011 (ip), vehicle: carboxymethylcellulose (CMC)",20 % of control
same,T/C,"dose: 2.75 mg/kg/injection, schedule: Q01DX011 (ip), vehicle: carboxymethylcellulose (CMC)",3 % of control
same,T/C,"dose: 3.0 mg/kg/injection, schedule: Q01DX011 (ip), vehicle: carboxymethylcellulose (CMC)",1 % of control and 2 % of control and 6 % of control
same,T/C,"dose: 3.0 mg/kg/injection, schedule: Q01DX011 (ip), vehicle: saline",1 % of control
same,T/C,"dose: 3.5 mg/kg/injection, schedule: Q01DX011 (ip), vehicle: saline",4 % of control
same,T/C,"dose: 3.5 mg/kg/injection, schedule: Q01DX011 (oral), vehicle: saline",8 % of control
same,T/C,"dose: 4.0 mg/kg/injection, schedule: Q01DX011 (ip), vehicle: carboxymethylcellulose (CMC)",7 % of control
same,T/C,"dose: 4.0 mg/kg/injection, schedule: Q01DX011 (ip), vehicle: saline",5 % of control
same,T/C,"dose: 4.28 mg/kg/injection, schedule: Q01DX011 (ip), vehicle: carboxymethylcellulose (CMC)",4 % of control and 9 % of control
same,T/C,"dose: 5.0 mg/kg/injection, schedule: Q01DX007 (ip), vehicle: carboxymethylcellulose (CMC)",8 % of control
same,T/C,"dose: 5.0 mg/kg/injection, schedule: Q01DX011 (ip), vehicle: alkali diluted with saline",4 % of control
same,T/C,"dose: 5.35 mg/kg/injection, schedule: Q01DX011 (ip), vehicle: carboxymethylcellulose (CMC)",7 % of control and 17 % of control
same,T/C,"dose: 5.5 mg/kg/injection, schedule: Q01DX011 (ip), vehicle: carboxymethylcellulose (CMC)",4 % of control and 6 % of control
same,T/C,"dose: 6.0 mg/kg/injection, schedule: Q01DX011 (ip), vehicle: alkali diluted with saline",4 % of control
same,T/C,"dose: 6.0 mg/kg/injection, schedule: Q01DX011 (ip), vehicle: saline",1 % of control and 5 % of control
same,T/C,"dose: 7.0 mg/kg/injection, schedule: Q01DX011 (oral), vehicle: saline",10 % of control
same,T/C,"dose: 7.13 mg/kg/injection, schedule: Q01DX011 (ip), vehicle: carboxymethylcellulose (CMC)",8 % of control
same,T/C,"dose: 10.0 mg/kg/injection, schedule: Q01DX011 (ip), vehicle: alkali diluted with saline",1 % of control and 9 % of control
same,T/C,"dose: 10.0 mg/kg/injection, schedule: Q01DX011 (oral), vehicle: alkali diluted with saline",1 % of control
same,T/C,"dose: 10.7 mg/kg/injection, schedule: Q01DX011 (ip), vehicle: carboxymethylcellulose (CMC)",7 % of control and 8 % of control
same,T/C,"dose: 11.0 mg/kg/injection, schedule: Q01DX011 (ip), vehicle: carboxymethylcellulose (CMC)",4 % of control
same,T/C,"dose: 12.5 mg/kg/injection, schedule: Q01DX011 (ip), vehicle: carboxymethylcellulose (CMC)",1 % of control
same,T/C,"dose: 15.0 mg/kg/injection, schedule: Q01DX011 (ip), vehicle: carboxymethylcellulose (CMC)",4 % of control
same,T/C,"dose: 15.0 mg/kg/injection, schedule: Q01DX011 (ip), vehicle: saline",1 % of control and 4 % of control
same,T/C,"dose: 20.0 mg/kg/injection, schedule: Q01DX011 (ip), vehicle: alkali diluted with saline",1 % of control and 4 % of control
same,T/C,"dose: 21.4 mg/kg/injection, schedule: Q01DX011 (ip), vehicle: carboxymethylcellulose (CMC)",6 % of control
same,T/C,"dose: 22.0 mg/kg/injection, schedule: Q01DX011 (ip), vehicle: carboxymethylcellulose (CMC)",3 % of control
same,T/C,"dose: 25.0 mg/kg/injection, schedule: Q01DX011 (ip), vehicle: alkali diluted with saline",2 % of control and 11 % of control
same,T/C,"dose: 25.0 mg/kg/injection, schedule: Q01DX011 (ip), vehicle: carboxymethylcellulose (CMC)",4 % of control
same,T/C,"dose: 25.0 mg/kg/injection, schedule: Q01DX011 (ip), vehicle: saline",3 % of control
same,T/C,"dose: 30.0 mg/kg/injection, schedule: Q01DX011 (ip), vehicle: carboxymethylcellulose (CMC)",4 % of control and 6 % of control
same,T/C,"dose: 35.0 mg/kg/injection, schedule: Q01DX011 (ip), vehicle: carboxymethylcellulose (CMC)",5 % of control
same,T/C,"dose: 40.0 mg/kg/injection, schedule: Q01DX011 (ip), vehicle: alkali diluted with saline",2 % of control
same,T/C,"dose: 40.0 mg/kg/injection, schedule: Q01DX011 (ip), vehicle: carboxymethylcellulose (CMC)",5 % of control
same,T/C,"dose: 44.0 mg/kg/injection, schedule: Q01DX007 (ip), vehicle: carboxymethylcellulose (CMC)",3 % of control
same,T/C,"dose: 44.0 mg/kg/injection, schedule: Q01DX011 (ip), vehicle: alkali diluted with saline",2 % of control
same,T/C,"dose: 44.0 mg/kg/injection, schedule: Q01DX011 (ip), vehicle: carboxymethylcellulose (CMC)",3 % of control and 5 % of control
same,T/C,"dose: 50.0 mg/kg/injection, schedule: Q01DX011 (ip), vehicle: alkali diluted with saline",4 % of control
same,T/C,"dose: 60.0 mg/kg/injection, schedule: Q01DX011 (ip), vehicle: carboxymethylcellulose (CMC)",4 % of control
same,T/C,"dose: 62.0 mg/kg/injection, schedule: Q01DX011 (ip), vehicle: saline",2 % of control
same,T/C,"dose: 65.0 mg/kg/injection, schedule: Q01DX011 (ip), vehicle: alkali diluted with saline",1 % of control
same,T/C,"dose: 80.0 mg/kg/injection, schedule: Q01DX011 (ip), vehicle: alkali diluted with saline",2 % of control and 4 % of control
same,T/C,"dose: 100.0 mg/kg/injection, schedule: Q01DX011 (ip), vehicle: alkali diluted with saline",1 % of control
same,T/C,"dose: 100.0 mg/kg/injection, schedule: Q01DX011 (ip), vehicle: saline",1 % of control
same,T/C,"dose: 320.0 mg/kg/injection, schedule: Q01DX001 (ip), vehicle: alkali diluted with saline",5 % of control
same,T/C,"dose: 320.0 mg/kg/injection, schedule: Q01DX001 (oral), vehicle: alkali diluted with saline",19 % of control
same,T/C,"dose: 320.0 mg/kg/injection, schedule: Q07DX002 (ip), vehicle: alkali diluted with saline",4 % of control
same,T/C,"dose: 480.0 mg/kg/injection, schedule: Q01DX001 (oral), vehicle: alkali diluted with saline",22 % of control
same,T/C,"dose: 480.0 mg/kg/injection, schedule: Q03DX004 (oral), vehicle: alkali diluted with saline",1 % of control
same,T/C,"dose: 480.0 mg/kg/injection, schedule: Q07DX002 (oral), vehicle: alkali diluted with saline",2 % of control
same,T/C,"dose: 640.0 mg/kg/injection, schedule: Q01DX001 (oral), vehicle: alkali diluted with saline",10 % of control
same,T/C,"dose: 640.0 mg/kg/injection, schedule: Q07DX002 (oral), vehicle: alkali diluted with saline",2 % of control
same,T/C,"dose: 125.0 micrograms/kg/injection, schedule: Q01DX011 (ip), vehicle: saline",11 % of control
same,T/C,"dose: 250.0 micrograms/kg/injection, schedule: Q01DX011 (ip), vehicle: saline",20 % of control
same,T/C,"dose: 500.0 micrograms/kg/injection, schedule: Q01DX011 (ip), vehicle: saline",9 % of control
same,T/C,"dose: 1000.0 micrograms/kg/injection, schedule: Q01DX011 (ip), vehicle: saline",3 % of control
